According to patent publication US20020022022A1, “Inhibition of cell proliferation and matrix synthesis by antioxidants and NAD(P)H oxidase inhibitors” (priority 2000, published 2002):
“Also recorded” adds a separate entry of the source. Read-outs that look alike come from different tables or passages of the source.

B1: CAT: catalase; removal of H2O2 (protein, UniProt P00432 2-527, looked up)
Catalase: ADNRDPASDQMKHWKEQRAAQKPDVLTTGGGNPVGDKLNSLTVGPRGPLLVQDVVFTDEMAHFDRERIPERVVHAKGAGAFGYFEVTHDITRYSKAKVFEHIGKRTPIAVRFSTVAGESGSADTVRDPRGFAVKFYTEDGNWDLVGNNTPIFFIRDALLFPSFIHSQKRNPQTHLKDPDMVWDFWSLRPESLHQVSFLFSDRGIPDGHRHMNGYGSHTFKLVNANGEAVYCKFHYKTDQGIKNLSVEDAARLAHEDPDYGLRDLFNAIATGNYPSWTLYIQVMTFSEAEIFPFNPFDLTKVWPHGDYPLIPVGKLVLNRNPVNYFAEVEQLAFDPSNMPPGIEPSPDKMLQGRLFAYPDTHRHRLGPNYLQIPVNCPYRARVANYQRDGPMCMMDNQGGAPNYYPNSFSAPEHQPSALEHRTHFSGDVQRFNSANDDNVTQVRTFYLKVLNEEQRKRLCENIAGHLKDAQLFIQKKAVKNFSDVHPEYGSRIQALLDKYNEEKPKNAVHTYVQHGSHLSAREKANL

Columns and labels:
[1] = system: —O2^− generation in coronary adventitial fibroblasts; assay: Serum-induced —O2^− generation in coronary adventitial fibroblasts (NBT to formazan); type: cell-based, porcine
Experimental: —O2^− production in isolated adventitial fibroblasts: Adventitial fibroblasts (passage 2-6) are plated in 6-well plates at 100,000 cells/well in 10% FBS. Two (2) days later, when cells are ˜80% confluent, they are arrested in 0.5% FBS for the next 48 hours. Afterwards, they are stimulated with 10% FBS for 1-24 hours, followed by incubation with NBT (0.5 mg/ml in phenol-free DMEM) for one hour. After a brief washing, cells are trypsinized, and cell pellets are dissolved in 100% pyridine. The light absorbance is measured at 540 nm, and the NBT reduction to formazan is calculated as described above and corrected by cell number. Values are derived from 6-9 wells from three separate experiments.

[2] = system: superoxide generation in injured coronary arteries; assay: Superoxide generation in injured coronary arteries (SOD-inhibitable NBT reduction); type: cell-based, pigs; details: for Superoxide generation (SOD-inhibitable NBT reduction): rings pretreated 30 minutes, DPI 100 μM or L-NAME 1 mM; for effect on superoxide generation after coronary injury: injured coronary arteries, DPI 100 μM, L-NAME 1 mM
Text: Domestic crossbred female pigs (12-15 kg) are anesthetized and instrumented, as previously described. (22,23) After the exposure of the right common carotid artery, heparin (5,000 U) is intravenously administered. […] The third artery is used as a control. The animals are euthanatized with intravenous […] Laboratory) at the times indicated in the text. […] Coronary arteries are dissected free from adipose tissue and myocardium and then cut into 5 mm rings and placed in 24-well plates. […] The reaction is terminated by addition of equal volume of 0.5N HCl, and tissues are rinsed twice with cold PBS. To extract formazan, tissues are pulverized in liquid nitrogen and dissolved in 100% pyridine at 80° C. for 30 minutes. After centrifugation, light absorbance is read in supernatants at 540 nm. The NBT reduction to formazan is calculated using the following formula: NBT reduction=[…]: absorbance; V: volume of solubilizing solution; T: time of incubation with NBT (minutes); […] L: length of light travel through the solution, 10 mm).

[3] = system: superoxide anion (—O2^−) in SVG; assay: Superoxide anion in saphenous vein grafts (SOD-inhibitable NBT reduction); type: cell-based, pigs; details: SVG 2 weeks after surgery, DPI 100 μM; for effect on superoxide anion in SVG (SOD-inhibitable NBT reduction): L-NAME 1 mM
Experimental: A porcine model of a graft interposition in the common carotid artery is used as described. (49) Domestic crossbred pigs (n=22) weighing 35-50 kg are sedated with Telazol (3-5 mg/kg) and atropine (0.01 mg/kg) i.m. Anesthesia is maintained with Propofol, i.v. (15 mg/kg/hr). The animals are ventilated with 100% oxygen. Saphenous veins are harvested without distension and incubated for 30 minutes in saline containing nitroglycerine (0.5 mg/ml). Both carotid arteries are dissected free and heparin (150 U/kg) is administered i.v. A ˜2 cm section of the carotid artery is excised and reversed vein interposition grafting is performed. The excised carotid artery then is grafted into the contralateral carotid artery. Postoperative analgesia is provided with Buprenex (0.015 mg/kg) i.m. The animals are given aspirin 650 mg/day p.o. At the times indicated, animals are euthanized with Euthasol (80 mg/kg) i.v. and vascular tissues harvested.
Superoxide anion (—O2^−) production is measured by SOD-inhibitable conversion of NTB to formazan. (20,21) Normal saphenous veins, arteries, SVG, and AG are harvested at 2 weeks after surgery. After the removal of adventitia and endothelium, tissues are cut into ˜5 mm strips, placed in a 24-well plate, and balanced in pheno-free DMEM at 37° C. in CO2 for 30 minutes. Freshly made NBT (0.1 mg/ml in pheno-free DMEM) is added for 3 hours with or without addition of SOD (1000 U/ml). The reaction is terminated by 0.5N HCl and rinsing twice with cold PBS. To extract formazan, tissues are pulverized in liquid nitrogen, dissolved in 100% pyridine at 80° C. for 30 minutes, and centrifuged. Supernatants are read at 540 nm and NBT reduction is calculated as follows: NBT reduction=A×V/(T×E×L) (A: absorbance; V: volume of solubilizing solution; T: time of incubation with NBT (minutes); E: extinction coefficient=0.72 mmol.mm; L: length of light travel through the solution (10 mm).) The SOD-inhibitable NBT reduction is calculated as a measure of —O2^− (pmol/mg wet weight/min). In separate experiments, the inhibitors of oxidative enzymes are used, inlcuding diphenyleneiodonium (DPI, 100 μM) rotenone (ROT, 50 μμM), oxypurinol (OXY, 300 μμM) and N^ω-nitro-L-arginine methyl ester (L-NAME, 1 mM), to determine the origin of —O2^− in vascular grafts.

[4] = system: adventitial fibroblasts; assay: Cell proliferation assay, serum-stimulated adventitial fibroblasts (cell counting); type: cell-based, porcine; details: for effect on fibroblast growth (cell counting): 10% FBS, 3 days after treatment, concentration-dependent; for effect on serum-induced growth of vascular cells in vitro: serum-stimulated isolated vascular cells (fibroblasts and SMC, FIGS. 7A and 7B)
Experimental: (§1) Fibroblasts are isolated from the adventitia of porcine coronary arteries as described. (26) The cells (passage 2-6) are plated in triplicates at 10,000 cells/well in 24-well plates in DMEM supplemented with 10% FBS. At 24 hours later, cells are arrested in DMEM containing 0.5% FBS for 48 hours. Afterwards, they are stimulated with 10% FBS for 3 days with or without addition of indicated inhibitors. Cells are trypsinized at 72 hours after stimulation and counted in a Coulter counter. Values are derived from 3 wells/treatment and the experiments are repeated at least three times on separate occasions.

[5] = system: vascular SMC; assay: Vascular SMC proliferation, serum-stimulated (cell counting); type: cell-based; details: 10% FBS, 3 days after treatment; concentration-dependent
Experimental: FIG. 7B. ROS and vascular SMC proliferation. SMC (10,000 cells/well) are arrested with 0.5% FBS for 48 hours and then stimulated with 10% FBS in the presence or absence of various inhibitors. Cell growth is examined at 3 days after treatment by cell counting. […] The experiments are repeated 3 times yielding similar results.
as §1

[6] = system: superoxide anion (—O2^−) generation in coronary adventitia; assay: —O2^− production in uninjured coronary adventitia (SOD-inhibitable NBT reduction); type: cell-based, pigs; details: uninjured coronary rings pre-incubated with inhibitor; DPI 100 μM, ROT 50 μM, OXY 300 μM
Experimental: The production of —O2^− is measured by superoxide dismutase- (SOD) or tiron-inhibitable conversion of nitroblue tetrazolium (NBT) to formazan. (20,21)
—O2^− production in coronary arteries: Coronary arteries are dissected free from adipose tissue and myocardium and then cut into ˜5 mm rings and placed in 24-well plates. Tissues are balanced in phenol-free DMEM at 37° C. in a CO2 incubator for 30 minutes with or without addition of SOD (SOD, 1000 unit/ml) or tiron (10 mM), both scavengers of —O2^− Freshly made NBT (100 mg/L in phenol-free DMEM) is added to the tissues with a gentle rocking for 3 hours. The reaction is terminated by addition of equal volume of 0.5N HCl, and tissues are rinsed twice with cold PBS. To extract formazan, tissues are pulverized in liquid nitrogen and dissolved in 100% pyridine at 80° C. for 30 minutes. After centrifugation, light absorbance is read in supernatants at 540 nm. The NBT reduction to formazan is calculated using the following formula: NBT reduction=A×V/(T×E×L) (A: absorbance; V: volume of solubilizing solution; T: time of incubation with NBT (minutes); E: extinction coefficient=0.72 mmol.mm; L: length of light travel through the solution, 10 mm). Either SOD- or tiron-inhibitable NBT reduction is calculated as measures of —O2^− production (pmol/min/mg wet weight). To determine the pathways mediating —O2^− production, several inhibitors are used in the experiments, including diphenyleneiodonium (DPI, 100 μM), rotenone (ROT, 50 μM), oxypurinol (OXY, 300 μM), N^ω-nitro-L-arginine methyl ester (L-NAME, 1 mM), and diethyldithio-carbamic acid (DETCA, 10 mM). The n value represents the number of vascular rings obtained from at least 3 animals per experimental condition.

[7] = cited from earlier work
[8] = pretreated 30 minutes, 10% FBS for 3 hours, DPI 10 μM, SOD 500 U/ml

| Molecule | effect on superoxide anion in SVG (SOD-inhibitable NBT reduction) [3] | effect on fibroblast growth (cell counting) [4] | effect on serum-induced growth of vascular cells in vitro [4] | effect on SMC growth (cell counting) [5] | effect on serum-induced —O2^− production [1, 8] | also measured |
| --- | --- | --- | --- | --- | --- | --- |
| c1ccc2c(c1)[I+]c1ccccc1-2 [DPI, diphenyleneiodonium] | significantly reduced | significantly inhibits | significantly inhibits; also recorded: abrogates | significantly inhibits | – | effect on serum-induced —O2^− production [1]: significant inhibition; also recorded: significant reduction; Superoxide generation (SOD-inhibitable NBT reduction) ([2]; 2 days after injury): 0.5 ± 0.9 pmol/mg/min; Superoxide generation (SOD-inhibitable NBT reduction) ([2]; 10 days after injury): 0.2 ± 0.3 pmol/mg/min; effect on superoxide generation after coronary injury [2]: almost entirely abolishes; reduction of —O2^− in SVG [3]: > 95%; effect on —O2^− generation in coronary adventitia (SOD-inhibitable NBT reduction) [6]: inhibits; also recorded: abolishes |
| COC(=O)[C@@H](N)CCCNC(=N)N[N+](=O)[O-] [L-NAME, N^ω-nitro-L-arginine methyl ester] | no effects; also recorded: do not decrease | – | no significant effects | – | no effects | Superoxide generation (SOD-inhibitable NBT reduction) ([2]; 2 days after injury): 12.9 ± 9.4 pmol/mg/min; Superoxide generation (SOD-inhibitable NBT reduction) ([2]; 10 days after injury): 11.5 ± 6.1 pmol/mg/min; effect on superoxide generation after coronary injury [2]: shows no effect |
| CC(=O)N[C@@H](CS)C(=O)O [NAC, N-acetylcysteine] | – | – | – | significantly inhibits | – | – |
| O=c1[nH]c(=O)c2c[nH]nc2[nH]1 [OXY, oxypurinol] | do not decrease | – | no significant effects | – | no effects | effect on superoxide anion in SVG (SOD-inhibitable NBT reduction) ([3]; listed as oxypurinol): no effects; effect on —O2^− generation in coronary adventitia (SOD-inhibitable NBT reduction) [6]: no inhibitory effects; also recorded: no effect |
| C=C(C)[C@H]1Cc2c(ccc3c2O[C@@H]2COc4cc(OC)c(OC)cc4[C@@H]2C3=O)O1 [ROT, rotenone] | do not decrease | – | – | – | no effects | effect on superoxide anion in SVG (SOD-inhibitable NBT reduction) ([3]; listed as rotenone): no effects; effect on —O2^− generation in coronary adventitia (SOD-inhibitable NBT reduction) [6]: no inhibitory effects; also recorded: no effect |
| COc1cc(C(C)=O)ccc1O [apocynin, 4-hydroxy-3-methoxyacetopoenone] | – | – | – | significantly inhibits | – | – |
| CCOC(=O)[C@H](CCc1ccccc1)N[C@@H](C)C(=O)N1[C@H](C(=O)O)C[C@@H]2CCC[C@@H]21 [ramipril] | – | – | – | – | – | cardiovascular mortality ([7]; chronic administration, HOPE trial): reduction |
| O=S(=O)(O)c1cc(O)c(O)c(S(=O)(=O)O)c1 [tiron] | – | significantly inhibits | inhibits; also recorded: abrogates | significantly inhibits | – | – |
| SOD: superoxide dismutase, exogenous enzyme; dismutation of —O2^− to H2O2 | – | no significant inhibition | does not prevent; also recorded: ineffective | no significant inhibition | significant inhibition; also recorded: significant reduction | – |
| vitamin E | – | – | – | – | – | clinical results with antioxidant ([7]; clinical): largely negative |
| B1 | – | significantly inhibits | inhibits; also recorded: abrogates | significantly inhibits | – | – |
